Measured values published in patent publication US9676773B2, “Azaindole derivative” (TAIHO PHARMACEUTICAL CO., LTD., priority 2014, dated 2017).

Key:
Format in all cases: biochemical
[1] = molecular target: T1, purified recombinant human JAK1 protein (Homo sapiens, UniProt P23458); test: Measurement of JAK1 kinase-inhibitory activity; details: substrate peptide 1 μM, ATP 75 M (so in the source), 25° C., 120 minutes
T1 construct: purchased Carna Biosciences, Inc
Description: 1) Measurement of JAK1 Kinase-Inhibitory Activity
The activity of the compound of the present invention to inhibit the activity of JAK1 kinase was measured.
(§1) Among materials for the measurement of this inhibitory activity, a substrate peptide and a kinase protein were acquired as follows. As such a substrate peptide, a substrate peptide for QSS Assist™ JAK1-MSA assay kit (Carna Biosciences, Inc.) was purchased. As such a kinase protein, a purified recombinant human JAK1 protein (Carna Biosciences, Inc.) was purchased.
The method for measuring the inhibitory activity is as follows. First, the compounds of the present invention were each dissolved in dimethyl sulfoxide (DMSO), and a serial dilution was then prepared by the use of DMSO. Subsequently, a serial dilution solution of the compound (the final concentration of DMSO upon a kinase reaction: 5.0%) or DMSO (final concentration: 5.0%) was mixed with a solution containing the substrate peptide (final concentration: 1 μM), magnesium chloride (final concentration: 5 mM) and ATP (final concentration: 75 µM) in a buffer for kinase reaction (20 mM HEPES (pH 7.5), 2 mM dithiothreitol and 0.01% Triton X-100). Thereafter, a JAK1 protein was further added to the mixed solution, and the obtained mixture was then incubated at 25° C. for 120 minutes to carry out a kinase reaction. To the reaction solution, EDTA was added to a final concentration of 30 mM, so as to terminate the reaction. Finally, with LabChip EZ Reader II (Perkin Elmer Corp.), an unphosphorylated substrate peptide (S) and a phosphorylated peptide (P) were subjected to microchannel capillary electrophoresis, so that the two peptides were separated from each other and were then detected. The amount of a phosphorylation reaction was obtained based on the heights of the peaks of S and P, and the concentration of the compound capable of inhibiting 50% of the phosphorylation reaction was defined as an IC50 value (nM).

[2] = molecular target: T2, purified recombinant human JAK2 protein (Homo sapiens, UniProt O60674); test: Measurement of JAK2 kinase-inhibitory activity; details: FL-Peptide 22 1 μM, ATP 10 μM, 25° C., 80 minutes
T2 construct: purchased Carna Biosciences, Inc
T2 sequence (O60674 whole entry): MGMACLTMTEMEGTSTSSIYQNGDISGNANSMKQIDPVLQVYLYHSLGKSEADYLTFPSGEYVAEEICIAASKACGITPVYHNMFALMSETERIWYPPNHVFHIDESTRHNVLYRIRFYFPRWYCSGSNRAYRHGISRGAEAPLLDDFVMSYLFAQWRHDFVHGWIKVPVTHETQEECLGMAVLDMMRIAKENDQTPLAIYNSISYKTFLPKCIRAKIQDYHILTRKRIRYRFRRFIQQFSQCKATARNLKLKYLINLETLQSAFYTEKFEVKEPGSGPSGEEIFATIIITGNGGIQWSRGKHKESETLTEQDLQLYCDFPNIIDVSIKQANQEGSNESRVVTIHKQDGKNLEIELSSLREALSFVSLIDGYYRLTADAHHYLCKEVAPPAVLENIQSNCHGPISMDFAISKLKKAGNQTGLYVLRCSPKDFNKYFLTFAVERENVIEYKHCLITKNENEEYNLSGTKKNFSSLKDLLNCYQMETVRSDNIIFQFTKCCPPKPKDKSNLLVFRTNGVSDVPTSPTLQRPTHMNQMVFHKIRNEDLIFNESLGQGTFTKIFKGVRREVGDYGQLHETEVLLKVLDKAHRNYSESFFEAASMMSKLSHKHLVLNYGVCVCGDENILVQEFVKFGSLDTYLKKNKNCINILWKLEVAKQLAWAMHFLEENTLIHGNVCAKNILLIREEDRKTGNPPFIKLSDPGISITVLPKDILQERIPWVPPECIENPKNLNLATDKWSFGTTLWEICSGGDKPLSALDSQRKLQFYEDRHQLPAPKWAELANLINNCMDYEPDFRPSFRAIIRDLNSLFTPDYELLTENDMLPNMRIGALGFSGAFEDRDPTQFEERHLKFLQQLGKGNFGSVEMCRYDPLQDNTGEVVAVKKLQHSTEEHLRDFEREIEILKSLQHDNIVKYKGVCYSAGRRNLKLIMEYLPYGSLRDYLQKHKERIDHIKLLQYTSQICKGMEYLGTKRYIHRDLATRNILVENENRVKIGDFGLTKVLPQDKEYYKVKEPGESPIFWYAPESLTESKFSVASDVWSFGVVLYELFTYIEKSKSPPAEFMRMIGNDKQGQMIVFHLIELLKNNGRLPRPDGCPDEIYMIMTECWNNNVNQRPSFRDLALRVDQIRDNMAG
Description: 2) Measurement of JAK2 Kinase-Inhibitory Activity
The activity of the compound of the present invention to inhibit the activity of JAK2 kinase was measured.
as §1, with “FL-Peptide 22 (Perkin Elmer Corp.)” for “a substrate peptide for QSS Assist™ JAK1-MSA assay kit (Carna Biosciences, Inc.)”, “JAK2” for “JAK1”
(§2) The method for measuring the inhibitory activity is as follows. First, a serial dilution of the compound of the present invention was prepared by the same method as that described in the above section regarding JAK1. This serial dilution solution (the final concentration of DMSO upon a kinase reaction: 5.0%) or DMSO (final concentration: 5.0%) was mixed with a solution containing the substrate peptide (final concentration: 1 μM), magnesium chloride (final concentration: 10 mM) and ATP (final concentration: 10 μM) in a buffer for kinase reaction (15 mM Tris (pH 7.5), 2 mM dithiothreitol and 0.01% Tween 20). Thereafter, a JAK2 protein was further added to the mixed solution, and the obtained mixture was then incubated at 25° C. for 80 minutes to carry out a kinase reaction. To the reaction solution, EDTA was added to a final concentration of 30 mM, so as to terminate the reaction. After termination of the reaction, the measurement and the data analysis were carried out by the same methods as those described in the above section regarding JAK1.

[3] = molecular target: T3, purified recombinant human JAK3 protein (Homo sapiens, UniProt P52333); test: Measurement of JAK3 kinase-inhibitory activity; details: substrate peptide 1 μM, ATP 5 μM, 25° C., 80 minutes
T3 construct: purchased Carna Biosciences, Inc
T3 sequence (P52333 1-1124): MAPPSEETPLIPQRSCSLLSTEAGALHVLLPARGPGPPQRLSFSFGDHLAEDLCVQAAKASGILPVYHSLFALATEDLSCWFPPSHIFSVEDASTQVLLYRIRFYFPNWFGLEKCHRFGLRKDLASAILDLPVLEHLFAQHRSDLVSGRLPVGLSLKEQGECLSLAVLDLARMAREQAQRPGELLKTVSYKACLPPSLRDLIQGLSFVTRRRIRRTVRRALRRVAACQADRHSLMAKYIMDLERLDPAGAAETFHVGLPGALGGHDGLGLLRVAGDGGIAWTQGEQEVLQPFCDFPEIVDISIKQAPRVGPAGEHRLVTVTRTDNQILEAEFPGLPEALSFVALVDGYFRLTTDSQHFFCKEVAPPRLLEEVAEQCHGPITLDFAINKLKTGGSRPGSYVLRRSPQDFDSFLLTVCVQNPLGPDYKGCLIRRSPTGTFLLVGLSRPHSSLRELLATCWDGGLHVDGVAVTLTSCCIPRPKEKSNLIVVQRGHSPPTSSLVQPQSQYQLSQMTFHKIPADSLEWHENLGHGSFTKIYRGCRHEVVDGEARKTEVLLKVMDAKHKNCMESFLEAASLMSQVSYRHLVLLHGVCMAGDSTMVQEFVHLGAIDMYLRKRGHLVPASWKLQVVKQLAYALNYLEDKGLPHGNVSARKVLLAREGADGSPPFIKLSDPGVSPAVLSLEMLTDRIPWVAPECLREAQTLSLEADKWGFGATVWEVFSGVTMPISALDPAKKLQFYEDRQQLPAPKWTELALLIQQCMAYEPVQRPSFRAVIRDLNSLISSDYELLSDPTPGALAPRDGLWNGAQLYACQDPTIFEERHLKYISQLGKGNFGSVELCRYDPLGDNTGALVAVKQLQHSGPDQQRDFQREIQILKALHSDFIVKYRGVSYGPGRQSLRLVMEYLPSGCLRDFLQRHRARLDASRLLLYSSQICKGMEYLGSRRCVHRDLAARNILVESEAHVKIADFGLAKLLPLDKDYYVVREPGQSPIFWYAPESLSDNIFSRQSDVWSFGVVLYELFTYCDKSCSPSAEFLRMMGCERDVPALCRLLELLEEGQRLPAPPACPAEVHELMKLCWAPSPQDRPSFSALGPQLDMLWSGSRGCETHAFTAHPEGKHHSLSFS
Description: 3) Measurement of JAK3 Kinase-Inhibitory Activity
The activity of the compound of the present invention to inhibit the activity of JAK3 kinase was measured.
as §1, with “JAK3-MSA” for “JAK1-MSA”, “JAK3” for “JAK1”
as §2, with “5” for “10”, “(20” for “(15”, “HEPES” for “Tris”, “Triton X-100).” for “Tween 20).”, “JAK3” for “JAK2”

T1 sequence (P23458 whole entry): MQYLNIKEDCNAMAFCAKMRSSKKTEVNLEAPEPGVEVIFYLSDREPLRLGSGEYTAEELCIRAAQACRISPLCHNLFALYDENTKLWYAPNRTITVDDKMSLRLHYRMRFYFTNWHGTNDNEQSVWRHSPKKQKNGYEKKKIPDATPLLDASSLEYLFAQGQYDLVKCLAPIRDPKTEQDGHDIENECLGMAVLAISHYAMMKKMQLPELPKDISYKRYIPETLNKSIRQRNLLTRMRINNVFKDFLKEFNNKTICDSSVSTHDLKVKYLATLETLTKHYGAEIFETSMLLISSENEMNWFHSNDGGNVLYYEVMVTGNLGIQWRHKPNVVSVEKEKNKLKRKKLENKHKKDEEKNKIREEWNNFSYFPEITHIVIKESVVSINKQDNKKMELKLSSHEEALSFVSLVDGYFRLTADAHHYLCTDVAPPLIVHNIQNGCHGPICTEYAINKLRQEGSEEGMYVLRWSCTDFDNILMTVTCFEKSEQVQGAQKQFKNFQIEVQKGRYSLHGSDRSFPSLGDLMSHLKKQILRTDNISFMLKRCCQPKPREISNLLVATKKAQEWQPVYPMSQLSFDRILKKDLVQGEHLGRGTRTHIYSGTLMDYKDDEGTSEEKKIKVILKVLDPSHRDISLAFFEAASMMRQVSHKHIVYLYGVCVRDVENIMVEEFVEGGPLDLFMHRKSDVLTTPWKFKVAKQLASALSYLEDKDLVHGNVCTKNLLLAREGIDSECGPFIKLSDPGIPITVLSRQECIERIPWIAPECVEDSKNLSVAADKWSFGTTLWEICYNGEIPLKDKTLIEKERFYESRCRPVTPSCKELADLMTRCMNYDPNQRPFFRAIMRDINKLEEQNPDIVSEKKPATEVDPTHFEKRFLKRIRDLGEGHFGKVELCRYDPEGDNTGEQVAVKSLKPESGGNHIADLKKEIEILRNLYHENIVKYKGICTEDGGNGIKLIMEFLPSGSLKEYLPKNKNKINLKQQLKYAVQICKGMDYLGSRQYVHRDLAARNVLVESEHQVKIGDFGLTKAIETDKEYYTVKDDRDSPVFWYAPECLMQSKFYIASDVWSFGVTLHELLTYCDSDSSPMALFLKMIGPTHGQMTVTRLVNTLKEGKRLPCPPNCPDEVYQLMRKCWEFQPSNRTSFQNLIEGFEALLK

IC50 [1] | IC50 [2] | IC50 [3] | Structure (SMILES)
1600 nM | 440 nM | 0.34 nM | C=CC(=O)NC1CCC=C(c2c(C#N)cnc3[nH]cc(-c4ccco4)c23)C1 (stereo not drawn) [Compound 45, N-(3-(5-Cyano-3-(furan-2-yl)-1H-pyrrolo[2,3-b]pyridin-4-yl)cyclohex-3-en-1-yl)acrylamide]
3000 nM | 380 nM | 0.61 nM | C=CC(=O)NC1CCC=C(c2ccnc3[nH]cc(-c4nnc(CC)o4)c23)C1 (stereo not drawn) [Compound 51, N-(3-(3-(5-Ethyl-1,3,4-oxadiazol-2-yl)-1H-pyrrolo[2,3-b]pyridin-4-yl)cyclohex-3-en-1-yl)acrylamide]
> 10000 nM | 3100 nM | 0.38 nM | C=CC(=O)NC1CCC=C(c2ccnc3[nH]cc(-c4ccncc4)c23)C1 (stereo not drawn) [Compound 2, N-(3-(3-(Pyridin-4-yl)-1H-pyrrolo[2,3-b]pyridin-4-yl)cyclohex-3-en-1-yl)acrylamide]
890 nM | 480 nM | < 0.3 nM | C=CC(=O)NC1CCC=C(c2ccnc3[nH]cc(-c4n[nH]c(=O)o4)c23)C1 (stereo not drawn) [Compound 52, N-(3-(3-(5-Oxo-4,5-dihydro-1,3,4-oxadiazol-2-yl)-1H-pyrrolo[2,3-b]pyridin-4-yl)cyclohex-3-en-1-yl)acrylamide]
> 10000 nM | 4800 nM | 0.83 nM | C=CC(=O)NC1CCC=C(c2ccnc3[nH]cc(-c4ccc(N)nc4)c23)C1 (stereo not drawn) [Compound 39, N-(3-(3-(6-Aminopyridin-3-yl)-1H-pyrrolo[2,3-b]pyridin-4-yl)cyclohex-3-en-1-yl)acrylamide]
3200 nM | 1400 nM | 0.48 nM | C=CC(=O)NC1CCC=C(c2ccnc3[nH]cc(C4=CCCCC4)c23)C1 (stereo not drawn) [Compound 30, N-(3-(3-(cyclohex-1-en-1-yl)-1H-pyrrolo[2,3-b]-pyridin-4-yl)cyclohex-3-en-1-yl)acrylamide]
7700 nM | 3000 nM | 0.71 nM | C=CC(=O)NC1CCC=C(c2ccnc3[nH]cc(C4=CCOCC4)c23)C1 (stereo not drawn) [Compound 31, N-(3-(3-(3,6-Dihydro-2H-pyran-4-yl)-1H-pyrrolo[2,3-b]pyridin-4-yl)cyclohex-3-en-1-yl)acrylamide]
> 10000 nM | 9100 nM | 0.93 nM | C=CC(=O)NC1CCC=C(c2ccnc3[nH]cc(-c4ccc[n+]([O-])c4)c23)C1 (stereo not drawn) [Compound 43, 3-(4-(5-Acrylamidecyclohex-1-en-1-yl)-1H-pyrrolo[2,3-b]pyridin-3-yl)pyridine 1-oxide]
5800 nM | 2500 nM | 0.67 nM | C=CC(=O)NC1CCC=C(c2ccnc3[nH]cc(-c4cccnc4F)c23)C1 (stereo not drawn) [Compound 38, N-(3-(3-(2-Fluoropyridin-3-yl)-1H-pyrrolo[2,3-b]pyridin-4-yl)cyclohex-3-en-1-yl)acrylamide]
9500 nM | 1900 nM | 0.49 nM | C=CC(=O)NC1CCC=C(c2ccnc3[nH]cc(-c4cncc(CO)c4)c23)C1 (stereo not drawn) [Compound 11, N-(3-(3-(5-(Hydroxymethyl)pyridin-3-yl)-1H-pyrrolo[2,3-b]pyridin-4-yl)cyclohex-3-en-1-yl)acrylamide]
860 nM | 170 nM | < 0.3 nM | C=CC(=O)NC1CCC=C(c2c(OC)cnc3[nH]cc(-c4ccco4)c23)C1 (stereo not drawn) [Compound 17, N-(3-(3-(Furan-2-yl)-5-methoxy-1H-pyrrolo[2,3-b]pyridin-4-yl)cyclohex-3-en-1-yl)acrylamide]
> 10000 nM | 3000 nM | 0.72 nM | C=CC(=O)NC1CCC=C(c2ccnc3[nH]cc(C4=CC(=O)CCC4)c23)C1 (stereo not drawn) [Compound 32, N-(3-(3-(3-Oxocyclohex-1-en-1-yl)-1H-pyrrolo[2,3-b]pyridin-4-yl)cyclohex-3-en-1-yl)acrylamide]
3800 nM | 920 nM | 0.62 nM | C=CC(=O)NC1CCC=C(c2ccnc3[nH]cc(-c4nnc(C)o4)c23)C1 (stereo not drawn) [Compound 50, N-(3-(3-(5-Methyl-1,3,4-oxadiazol-2-yl)-1H-pyrrolo[2,3-b]pyridin-4-yl)cyclohex-3-en-1-yl)acrylamide]
1000 nM | 280 nM | 0.51 nM | C=CC(=O)NC1CCC=C(c2c(-c3cnn(C)c3)cnc3[nH]cc(-c4cccnc4)c23)C1 (stereo not drawn) [Compound 19, N-(3-(5-(1-Methyl-1H-pyrazolo-4-yl)-3-(pyridin-3-yl)-1H-pyrrolo[2,3-b]pyridin-4-yl)cyclohex-3-en-1-yl)acrylamide]
3600 nM | 1400 nM | 0.6 nM | C=CC(=O)NC1CCC=C(c2ccnc3[nH]cc(C4=CCCC4)c23)C1 (stereo not drawn) [Compound 33, N-(3-(3-(Cyclocyclopent-1-en-1-yl)-1H-pyrrolo[2,3-b]pyridin-4-yl)cyclohex-3-en-1-yl)acrylamide]
5200 nM | 2000 nM | 0.34 nM | C=CC(=O)NC1CCC=C(c2ccnc3[nH]cc(-c4cncs4)c23)C1 (stereo not drawn) [Compound 13, N-(3-(3-(Thiazol-5-yl)-1H-pyrrolo[2,3-b]pyridin-4-yl)cyclohex-3-en-1-yl)acrylamide]
